Data published in ChEMBL document CHEMBL3867437, “Oryzamides A-E, Cyclodepsipeptides from the Sponge-Derived Fungus Nigrospora oryzae PF18” (J Nat Prod, 2016).
In brackets after ≈: the same amount, converted by molar mass.

Key:
[1] = Cytotoxicity against human HeLa cells after 48 hrs by MTT assay; type: functional, cell-based
Staphylococcus aureus [2] = assay: Antibacterial activity against methicillin-sensitive Staphylococcus aureus ATCC 25923 after 24 hrs by spectrophotometric analysis; type: functional; details: ATCC 25923, 24 h
Staphylococcus aureus [3] = assay: Antibacterial activity against methicillin-resistant Staphylococcus aureus ATCC 43300 after 24 hrs by spectrophotometric analysis; type: functional; details: ATCC 43300, 24 h
Escherichia coli = assay: Antibacterial activity against Escherichia coli ATCC 25922 after 24 hrs by spectrophotometric analysis; type: functional; details: ATCC 25922, 24 h

SMILES | IC50 [1] [µM] | MIC (Staphylococcus aureus [2]) [µg/mL] | MIC (Staphylococcus aureus [3]) [µg/mL] | MIC (Escherichia coli) [µg/mL]
CCCCCC[C@H](C)[C@@H]1CC(=O)NCC(=O)N[C@@H](C(C)C)C(=O)N[C@H](CC(C)C)C(=O)N[C@@H](C)C(=O)N[C@@H](CCSC)C(=O)O1 | 31.3 | – | – | –
CCCCCC[C@H](C)[C@@H]1CC(=O)NCC(=O)N[C@@H](C(C)C)C(=O)N[C@H](CC(C)C)C(=O)N[C@@H](C)C(=O)N[C@@H](CC(C)C)C(=O)O1 | 25.7 | – | – | –
CCCCCC[C@H](C)[C@@H]1CC(=O)NCC(=O)N[C@@H](C(C)C)C(=O)N[C@H](CC(C)C)C(=O)N[C@@H](C)C(=O)N[C@@H](Cc2ccc(O)cc2)C(=O)O1 | 12.4 | – | – | –
O=C(N[C@H](CO)[C@H](O)c1ccc([N+](=O)[O-])cc1)C(Cl)Cl [CHLORAMPHENICOL] | – | 2 (≈ 6.19 µM) | 4 (≈ 12.4 µM) | 2 (≈ 6.19 µM)
